Results taken from patent publication US11576979B2, “Pyrrolobenzodiazepine prodrugs and antibody conjugates thereof” (GENENTECH, INC., priority 2016, dated 2023).

Experiments:
[1] = GSH adduct formation and stability of quinones; assay type: physicochemical; settings: 15 mM GSH; for % Rem. (percent remaining after 3 hours): 25 uM, pH 7.0, 37 C; for GSH Adduct / Degr (degradation): 3 hours
Experimental: For degradation analysis, the compounds were incubated at 25 μM with 15 mM GSH in 200 mM Tris buffer pH 7.0 containing 5% methanol at 37° C. for 3 hours. The control incubations were conducted without GSH. The samples were analyzed by LC/MS on Sciex TripleTOF 5600 on a Hypersil Gold C18 column (100×2.1, 1.9 μM, Thermo Scientific). The column was eluted by a gradient of buffer A (0.1% formic acid in 10 mM ammonium acetate) to buffer B (0.1% formic acid in 10 mM ammonium acetate in 90% acetonitrile), 5% B 0-0.5 min, 5-25% B 0.5-8 min, 25-75% B 8-13 min, and 75-95% B 13-13.5 min, 95% B 13.5-14.5 min, 95-5% B 14.5-15 min at 0.4 mL/min. All products were separated and characterized by LC/MS/MS in a positive ESI ion mode. Full scan accurate mass peak areas were used to estimate relative abundance of each component.

[2] = target: T1, DT Diaphorase (Homo sapiens, UniProt P15559); assay: in vitro DT diaphorase activated drug release assay (NADPH depletion); assay type: biochemical; settings: 90 min
T1 construct: purchased Sigma D1315
T1 sequence (P15559 whole entry): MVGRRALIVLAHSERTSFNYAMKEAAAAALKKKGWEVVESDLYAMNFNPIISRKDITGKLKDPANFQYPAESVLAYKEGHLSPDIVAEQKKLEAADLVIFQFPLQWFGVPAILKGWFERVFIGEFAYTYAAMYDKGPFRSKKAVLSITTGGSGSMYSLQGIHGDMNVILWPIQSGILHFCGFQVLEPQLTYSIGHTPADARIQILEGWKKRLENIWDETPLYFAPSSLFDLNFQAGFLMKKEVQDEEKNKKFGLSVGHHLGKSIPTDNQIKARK
Experimental: An in vitro DT diaphorase activated drug release assay was used to measure NADPH depletion. DT diaphorase activated release of Norfloxacin and Payload (PBD) was measured by the in vitro depletion of NADPH. The assay method was modified from the absorbance measurement of NADPH at A340 (Osman et. al, Chemico-Biological Interactions 147 (2004) 99-108) due to the interference of compounds. The depletion of NADPH was measured by monitoring the decrease of fluorescence intensity of NADPH at 480 nm after being excited at […]. […] Prior to assay, dilute the stock to 1 mM as the 5× working solution; (5) DT Diaphorase specific Inhibitor: prepare 40 mM stock of Dicumarol (Sigma, Cat #M1390-5G, MW=336.29) in 0.13 N NaOH, stored at 4° C. Dilute the stock to 250 uM as the 5× working solution; (6) Compounds: dilute the Norfloxacin and PBD conjugated compounds in assay buffer to 250 uM as the 5× working solution; and (7) 384 well black plate with clear bottom. For the assay procedure: (1) The reaction mix containing 0.5 uM DT-D, 50 uM compound, […] NADPH was set up in a 384 well plate at 50 ul/well. For the control with DT Diaphorase inhibitor, Dicumarol was added in the reaction mix at final 50 uM for each compound. Reaction mix containing NADPH and compound only was also added as the baseline controls. The DT Diaphorase was added in the last step; and (2) The reaction mixes were incubated at room temperature for 5, 30, 90 min. The fluorescence intensity (RFU) of DNAPH was recorded on M1000 plate reader (Tecan) with excitation at 340 nm and emission at 480 nm. For data analysis, data was analyzed and plotted using Prism GraphPad 6. The depletion of NADPH was calculated by the formula below at reaction time point at 90 min wherein: % NADPH depletion=[…].

[3] = system: WSU-DLCL2; assay: CELLTITER GLO cell proliferation assay (Example 6); assay type: cell-based; settings: Homo sapiens, WSUDLCL2, read-out: IC50 potency WSU-DLCL2, Table 4; data in parenthesis = repeat evaluations
Experimental: (§1) The toxicity of PBD monomer disulfide prodrugs and diaphorase prodrugs were evaluated against KPL-4, WSU-DLCL2, HCT-116, HCC1395 and Jurkat cell cultures. […] KPL-4 cells further have a high expression of DTD on the order of about 839 nRPKM (where nRPKM refers to normalized reads per Kb of transcript length per million mapped read).
(§2) Potency of the disulfide and DT-diaphorase prodrugs was measured by a cell proliferation assay employing the following protocol (CELLTITER GLO™ Luminescent Cell Viability Assay, Promega Corp.). First, an aliquot of 40 ul of cell culture containing about 8000 cells of WSU-DLCL2 cells (low NQO1 gene and GSH level), 4000 cells of KPL-4 (high NQO1 gene and GSH level), HCT-116 cells, HCC1395 cells or Jurkat cells in RPMI-1640 culture medium (supplemented with 10% fetal bovine serum, 2 mM glutamine, 50 uM cystine, and 0.015 g/L L-methionine) was deposited in each well of a 384-well flat clear bottom white polystyrene tissue culture-treated microplates (Corning, N.Y.). Second, control wells were prepared containing medium with and without cells. Third, compounds with and without disulfide or DT-diaphorase prodrugs (n=3) were added to the experimental wells using ECHO acoustic liquid handling technology (Labcyte Inc, Sunnyvale, Calif.) to create a 10-point dose-response curve in triplicate with 1:3× serial dilution. Fourth, cells were cultured in a humidified incubator set at 37° C. and maintaining an atmosphere of 5% CO2. Fifth, the plates were equilibrated to room temperature for approximately 30 minutes. Sixth, a volume of CELLTITER GLO™ Reagent equal to the volume of cell culture medium present in each well was added. Seventh, the contents were mixed for 10 minutes on an orbital shaker in the dark to induce cell lysis. Eighth, the plate was incubated at room temperature for 30 minutes to stabilize the luminescence signal. Ninth, luminescence was recorded and reported in graphs as % activity where RLU (relative luminescence units) was normalized to controls (no compound control minus no cell control). Tenth, data was plotted as individual points for each replicate (n=3) for each antibody as the mean of luminescence for each set of replicates, with standard deviation error bars.

[4] = system: KPL-4; assay: CELLTITER GLO cell proliferation assay (Example 6); assay type: cell-based; settings: KPL4, read-out: IC50 potency KPL-4, Table 4; data in parenthesis = repeat evaluations
Experimental: as §1, §2

[5] = Disulfide cleavage by cysteine, LC/MS; assay type: physicochemical; settings: 15 uM compound, 0.2 mM cysteine, pH 7.0, 37 C
Experimental: (§3) For disulfide cleavage determination, the compounds were incubated at 15 μM with 0.2 mM cysteine or 4 mM GSH in 100 mM Tris buffer pH 7.0 containing 5% methanol at 37° C. Aliquots were taken at specified time points and the samples were analyzed by LC/MS on Sciex TripleTOF 5600 on a Hypersil Gold C18 column (100×2.1, 1.9 Thermo Scientific). The column was eluted by a gradient of buffer A (0.1% formic acid in 10 mM ammonium acetate) to buffer B (0.1% formic acid in 10 mM ammonium acetate in 90% acetonitrile), 5% B 0-0.5 min, 5-25% B 0.5-8 min, 25-75% B 8-13 min, and 75-95% B 13-13.5 min, 95% B 13.5-14.5 min, 95-5% B 14.5-15 min at 0.4 mL/min. All products were separated and characterized by LC/MS/MS in a positive ESI ion mode. All analytes had the protonated molecular MH+ as the major species with little source fragmentation. Full scan accurate mass peak areas were used to estimate relative abundance of each component.

[6] = system: UACC-257; assay: CellTiter-Glo toxicity, 4 days (Example 9); assay type: cell-based; settings: Homo sapiens, UACC-257, 96 h, 4 days of drug incubation; Table 7A
Experimental: (§4) The toxicity of various PBD monomer disulfide prodrugs and PBD dimer disulfide prodrugs was evaluated on UACC-257, Igrov-1 and A2058 cell lines. Cells were seeded in 384-well plate and treated with drug 24 hours later. After 4 days of drug incubation, the cell viability was determined using Promega CellTiter-Glo luminescent reagent, which measures ATP level (an indirect measure of cell number). The luminescent intensity was measured on PerkinElmer Envision reader. The relative cell viability was calculated by normalizing to non-drug treatment control and was graphed using KleidaGraph software package. IC50 value was determined as the concentration to obtain 50% of the maximum cell killing.

[7] = system: Igrov-1; assay: CellTiter-Glo toxicity, 4 days (Example 9); assay type: cell-based; settings: Homo sapiens, IGROV-1, 96 h, 4 days of drug incubation; Table 7A
Experimental: as §4

[8] = system: A2058; assay: CellTiter-Glo toxicity, 4 days (Example 9); assay type: cell-based; settings: Homo sapiens, A2058, 96 h, 4 days of drug incubation; Table 7A
Experimental: as §4

[9] = Disulfide cleavage by glutathione (GSH), LC/MS; assay type: physicochemical; settings: 15 uM compound, 4 mM GSH, pH 7.0, 37 C
Experimental: as §3

Structure (SMILES) | % Rem. (percent remaining after 3 hours) [1] [%] | NADPH Dep. (NADPH depletion at 90 minutes) [2] | Degr (degradation) [1] | other results
COC1=CC(=O)c2c(c(CO)cn2C)C1=O | 90 | 95.99% |  | GSH Adduct [1]: yes
COC1=CC(=O)c2c(c(CO)c(C)n2C)C1=O | 87 | 74.83% |  | GSH Adduct [1]: yes
COC1=C(C)C(=O)c2c(c(C)c(CO)n2C)C1=O | 92.5 | None |  | GSH Adduct [1]: yes
CCn1cc(C(=O)O)c(=O)c2cc(F)c(N3CCN(C(=O)OCc4ccc(NC(=O)OCc5cc6c(n5C)C(=O)C=C(OC)C6=O)cc4)CC3)cc21 | 63 | 94/0 | yes | 
CCn1cc(C(=O)O)c(=O)c2cc(F)c(N3CCN(C(=O)OCc4cc5c(n4C)C(=O)C=C(OC)C5=O)CC3)cc21 | 37.6 | 53.23% | yes | 
CCn1cc(C(=O)O)c(=O)c2cc(F)c(N3CCN(C(=O)OCc4c(C=O)c5c(n4C)C(=O)C=C(OC)C5=O)CC3)cc21 | 82.1 | 91.5% | yes | 
CCn1cc(C(=O)O)c(=O)c2cc(F)c(N3CCN(C(=O)OCc4cn(C)c5c4C(=O)C(OC)=CC5=O)CC3)cc21 |  | 85.2% |  | 
CCn1cc(C(=O)O)c(=O)c2cc(F)c(N3CCN(C(=O)OCc4c5c(n(C)c4C)C(=O)C=C(OC)C5=O)CC3)cc21 | 50 | 2.01% | yes | 
CCn1cc(C(=O)O)c(=O)c2cc(F)c(N3CCN(C(=O)OCc4c(C)c5c(n4C)C(=O)C=C(OC)C5=O)CC3)cc21 | 55.5 | 26.1% | yes | 
CCn1cc(C(=O)O)c(=O)c2cc(F)c(N3CCN(C(=O)OCc4c(C(=O)OC)c5c(n4C)C(=O)C=C(OC)C5=O)CC3)cc21 | 100 | 17.4% |  | 
COC1=CC(=O)c2c(c(C=O)c(CO)n2C)C1=O [2-(hydroxymethyl)-5-methoxy-1-methyl-4,7-dioxo-4,7-dihydro-1H-indole-3-carbaldehyde] | 0 | 96.92% | yes | 
C=C1C[C@H]2C(O)N(C(=O)OCc3ccccc3)c3cc(OC)c(OC)cc3C(=O)N2C1 (some centres unmarked) [PBD monomer control 2, reference compound] |  |  |  | IC50 [3]: > 10000 nM; IC50 [4]: > 10000 nM; % Remaining at 24 h by Cys [5]: 100%; IC50 [6]: > 20000 nM; IC50 [7]: > 20000 nM; IC50 [8]: > 20000 nM; % Remaining at 24 h by GSH [9]: 100%
C=C1C[C@H]2C(O)N(C(=O)OCc3ccc(NC(=O)OCc4cc5c(n4C)C(=O)C=C(OC)C5=O)cc3)c3cc(OC)c(OC)cc3C(=O)N2C1 (some centres unmarked) [PBD monomer diaphorase prodrug 3] |  | >90% at |  | IC50 [3]: 443 nM; IC50 [4]: 351 nM
C=C1C[C@H]2C(O)N(C(=O)OCC3(SSCC)CCCC3)c3cc(OC)c(OC)cc3C(=O)N2C1 (some centres unmarked) [PBD monomer disulfide prodrug 5] |  |  |  | IC50 [3]: 1350 nM; IC50 [4]: 1060 nM; % Remaining at 24 h by Cys [5]: 90.9%; IC50 [6]: 892 nM; IC50 [7]: 765 nM; IC50 [8]: 395 nM; % Remaining at 24 h by GSH [9]: 65.9%
C=C1C[C@H]2C(O)N(C(=O)OCc3ccc(SSC(C)(C)C)cc3)c3cc(OC)c(OC)cc3C(=O)N2C1 (some centres unmarked) [PBD monomer disulfide prodrug 6] |  |  |  | IC50 [3]: 2810 nM; IC50 [4]: 806 nM; % Remaining at 24 h by Cys [5]: 85.4%; IC50 [6]: 497 nM; IC50 [7]: 3260 nM; IC50 [8]: 567 nM; % Remaining at 24 h by GSH [9]: 2.1%
COC(=O)c1c2c(n(C)c1CO)C(=O)C=C(OC)C2=O [methyl 2-(hydroxymethyl)-5-methoxy-1-methyl-4,7-dioxo-4,7-dihydro-1H-indole-3-carboxylate] | 100 | None |  | 
